Data set [1] relates to blood clot (red blood cells adjacent to the sensor). The data set is described as follows: Glucose depletion at sensors inserted into blood clots, current response followed over time. It is filed as cell-based. Conditions: sensor with approximately 138 micrograms racemic D-/L-glyceraldehyde as thin outer coating, control sensors about 2 hour. As for the experimental part:
Glucose sensors are inserted into small silicon tubes containing the appropriate biological fluid. The tubes are maintained at about 37 degrees Celsius, and the glucose sensor is monitored.
Antiglycolytic sensors were prepared by modification of control sensors (FREESTYLE NAVIGATOR®) as follows. A coating solution was prepared from 250 mg/mL of a racemic mixture of L-glyceraldehyde and D-glyceraldehyde, and 150 mg/mL in polymer PC-1306 (Biocompatibles, PLC), the former suspended and the latter dissolved in ethanol. The resulting antiglycolytic sensors had approximately 138 micrograms of the racemic mixture of D- and L-glyceraldehydes incorporated as a thin, outer coating. Both these sensors and control sensors (no antiglycolytic agents added) were then inserted into blood clots, and the current response was followed over time.
The depletion is much delayed (up to about 12 hours) in the glyceraldehydes-containing sensors.

The nature of data set [2]: Antiglycolytic-modified sensor and control sensor implanted side by side in the arm of a non-diabetic subject. The note with it: FREESTYLE NAVIGATOR sensor with overcoat of about 55 micrograms L-glyceraldehyde, versus control sensor. Format: in vivo. As for the experimental part:
A further example of the use of an antiglycolytic sensor is provided by its use in an in vivo environment. In this example, a control sensor (FREESTYLE NAVIGATOR®) is inserted in the arm of a non-diabetic subject, adjacent to a similar sensor, which has been modified by the addition of an antiglycolytic agent, L-glyceraldehyde. A coating solution was made 200 mg/mL in L-glyceraldehyde, and 150 mg/mL in polymer PC-1306 (Biocompatibles, PLC), both dissolved in ethanol. The FREESTYLE NAVIGATOR® sensor was then modified by dipping twice into this coating solution, yielding an overcoat containing about 55 micrograms of L-glyceraldehyde. […] Glucose readings below 60 mg/dL are not anticipated in non-diabetic subjects, and are therefore considered to be anomalous, reflecting either (a) sensor malfunctions, or more likely (b) local inhomogeneities of glucose concentration (in the vicinity of a wound, for example) wherein the glucose concentration deviates substantially from the systemic value. Such deviations are observed with some regularity in control sensors, but are not observed in sensors modified with L-glyceraldehyde.

For data set [3] the following is noted: 50 mg/ml boric acid with 150 mg/ml L-glyceraldehyde and 150 mg/mL PC in outer membrane, stress at 56° C. for nine days, nonheparin blood. The method, then:
An example of the use of an antiglycolytic sensor containing borate minerals, boric acid or any precursor thereof, is provided by its testing in an in vitro environment. 50 mg/ml boric acid was mixed with 150 mg/ml L-glyceraldehyde and 150 mg/mL PC in 100% ethanol. The sensor was dipped three times with a 10 minute interval. The sensor was then cured overnight, and subjected to stress at 56° C. for nine days and subsequently tested in nonheparin blood.

Read-outs that look alike come from different tables or passages of the source.

`O=CC(O)CO` (racemic) [glyceraldehydes, racemic mixture of L-glyceraldehyde and D-glyceraldehyde]: the glucose depletion period result in data set [1] was “up to 12 hours”.
As to `O=C[C@@H](O)CO` [L-glyceraldehyde], in data set [2], the “large negative deviation in signal (values well below 60 mg/dL) during the night” value is listed as “not observed”.
On to `OB(O)O` [boric acid], for which the “high background current after stress” value is recorded as “significantly reduced” in data set [3] and “reduced significantly” in data set [3] (listed as borate).

The values above are taken from patent US10219728B2, “Analyte monitoring: stabilizer for subcutaneous glucose sensor with incorporated antiglycolytic agent” (Abbott Diabetes Care Inc., priority 2005, dated 2019).
